Results from US20030027765A1, “Therapeutic peptides having a motif that binds specifically to non-acetylated H3 and H4 histones for cancer therapy” (priority 2000, published 2003).
“Also recorded” adds a separate entry of the source. Blank lines part the entries; values can stand above or below the molecule they belong to.

Tests used:
C3H 10 T½ cells = assay: cell transformation assay (carcinogen-induced foci formation); type: cell-based, murine; conditions: FIG. 6, FIG. 12
[1] = target: T1, deacetylated H4 N-terminal tail (Homo sapiens, UniProt P62805); assay: in vitro immuno-binding assay, deacetylated H4; conditions: for binding to deacetylated H4 N-terminus: FIG. 9
T1 construct: using acetylated and deacetylated forms of the H4 N-terminal tail

[2] = tested on: mice embryo fibroblast cells (C3H 10T½); assay: cell adhesion assay with synthetic lunasin peptides; type: cell-based; conditions: C3H 10T½ cells, FIG. 2
Description: (§1) Lunasin contains the cell adhesion motif RGD (arg-gly-asp). […] However, at this stage of mitosis, kinetochore assembly and spindle fiber attachment to centromeres had already transpired.

[3] = tested on: murine embryo fibroblast cells; assay: exogenous application of lunasin to growth media, immunostaining; type: cell-based
Description: as §1

C3H cells = assay: lunasin treatment followed by E1A oncogene transfection (apoptosis); type: cell-based, murine; conditions: 20 h after transfection
Description: As a negative control, E1A with deleted conserved region 1 (E1AΔCR1) that abolishes the RB binding domain was likewise used in the transfection experiments (D. Trouche, T. Kouzidares, Proc. Natl. Acad. Sci., USA, vol. 93, 1439 (1996)).

histone H3 [4] = assay: histone H3 acetylation in Na-butyrate treated C3H cells (immunoblot); type: cell-based, murine
Description: (§2) Deacetylated histones are substrates for histone acetylation and for chromatin remodelling which has been associated with eukaryotic transcriptional regulatory mechanisms (K Struhl, Genes Dev., vol. 12, 599,1998; M. Grunstein, Nature, vol. 389,349, 1997).

histone H3 [5] = assay: histone H3 acetylation in Na-butyrate treated MCF-7 cells (immunoblot); type: cell-based, human
Description: as §2

[6] = target: histone H3 in MCF-7 cells (human)
[7] = target: deacetylated H4 N-terminal tail peptide; assay: in vitro immuno-binding assay, increasing dose of deacetylated H4 peptide (FIG. 10)
tetra-acetylated H4 = target: T2, tetra-acetylated H4 (Homo sapiens, UniProt P62805); assay: in vitro immuno-binding assay, tetra-acetylated H4; conditions: FIG. 9
T2 construct: using acetylated and deacetylated forms of the H4 N-terminal tail

histone H4 [8] = target: T3, histone H4 (Mus musculus, UniProt P62806); assay: histone H4 acetylation in Na-butyrate treated C3H cells (immunoblot); type: cell-based, murine; conditions: absence of lunasin
T3 construct: endogenous in cells; host or cells: C3H 10T1/2 mouse embryo fibroblasts
Description: as §2

histone H4 [9] = target: T4, histone H4 (Homo sapiens, UniProt P62805); assay: histone H4 acetylation in Na-butyrate treated MCF-7 cells (immunoblot); type: cell-based; conditions: absence of lunasin
T4 construct: endogenous in cells; host or cells: MCF-7
Description: as §2

[10] = treated with lunasin for 24 h, then E1Awt

- binding affinity to deacetylated H4 relative to trLunasin-del [1]: not significantly different
Molecule: trLunasin: truncated lunasin that contains only the reactive carboxyl end of the peptide (EKHIMEKIQGRGDDDDDDDDD; Glycine max; trLunasin)
- anti-transformation property / efficacy in preventing foci transformation (C3H 10 T½ cells): reduced efficacy
- binding to deacetylated H4 N-terminus [1]: significant reduction in deacetylated H4 binding; also recorded: lower binding affinity

Molecule: Ser-Lys-Trp-Gln-His-Gln-Gln-Asp-Ser-Cys-Arg-Lys-Gln-Leu-Gln-Gly-Val-Asn-Leu-Thr-Pro-Cys-Glu-Lys-His-Ile-Met-Glu-Lys-Ile-Gln-Gly-Arg-Gly-Asp -Asp-Asp-Asp-Asp-Asp-Asp-Asp-Asp [Lunasin]
- cell adhesion to C3H cells [2]: adhered to C3H cells in a dose-dependent manner
- internalization into cells ([3]; applied exogenously to the growth media, FIG. 3): became internalized
- chromosomal binding site of internalized peptide ([3]; applied exogenously, metaphase): preferentially binding to the telomeres of chromosomes during metaphase
- effect on cell division and proliferation ([3]; exogenous application): did not affect cell division and proliferation
- effect on kinetochore assembly ([3]; internalized lunasin): did not affect kinetochore assembly
- cell state after E1A-ΔCR1 transfection (C3H cells; presence of lunasin): normally dividing cells
- Annexin V staining of non-adherent cells (apoptosis) (C3H cells; [10]): positive fluorescent staining for Annexin V-HITC
- cell state after E1Awt transfection (C3H cells; [10]): preponderance of non-adherent cells
- Na-butyrate-induced increase in H3 acetylation upon addition of lunasin (histone H3 [4]; C3H cells): no observed increase
- acetylated H3 on immunoblots of acid-extracted proteins (histone H3 [4]; Na-butyrate treated C3H cells pretreated with 1 μM lunasin, FIG. 13): significant reduction
- reduction of H3 acetylation (histone H3 [5]; MCF-7 cells, lunasin added prior to Na-butyrate treatment): 4 fold
- acetylated H3 on immunoblots of acid-extracted proteins (histone H3 [5]; Na-butyrate treated MCF-7 cells pretreated with 1 μM lunasin, FIG. 13): significant reduction

- binding to deacetylated H4 N-terminus [1]: loss of binding to deacetylated H4
Molecule: NLS-trLunasin: truncated lunasin peptide with the helix substituted by a nuclear localization sequence (NLS) (LEEKQKKKMEKEQGRGDDDDDDDDD; Glycine max; NLS-trLunasin)

- acetylated H3 on immunoblots of acid-extracted proteins, Na-butyrate treated MCF-7 cells [6]: 4 fold
- binding against trLunasin-del [7]: 3 x
Molecule: Lunasin peptide

- binding to deacetylated H4 N-terminus [1]: high affinity
- binding to tetra-acetylated H4 (tetra-acetylated H4): not to the tetra-acetylated H4
Molecule: Lunasin-GRG: lunasin with deleted RGD motif (SKWQHQQDSCRKQLQGVNLTPCEKHIMEKIQGDDDDDDDD)
- cell adhesion to C3H cells [2]: prevented cell adhesion

- increase of histone H4 acetylation (histone H4 [8]): 200 fold
- increase of histone H4 acetylation (histone H4 [9]): 200 fold
Molecule: CCCC(=O)[O-].[Na+] [Na-butyrate, reference compound]
- increase of H3 acetylation (histone H3 [4]; C3H cells, Na-butyrate treatment): 100 fold
- increase of H3 acetylation (histone H3 [5]; MCF-7 cells, Na-butyrate treatment): around 400 fold

- binding affinity to deacetylated H4 relative to NLS-trLunasin ([1]; FIG. 10): significantly higher affinity
Molecule: trLunasin-del: 10 amino acid peptide fragment spanning a helical domain upstream of the poly-aspartyl carboxyl end of lunasin (EKHIMEKIQG; Glycine max; trLunasin-del)
